Experimental data from the supplement of paper PMC10307832.

Assays:
Assay in all cases: relative viability (nuclei count vs DMSO), 5 days (fraction); higher = more cells survive
BX 795 = compound: O=C(NCCCNc1nc(Nc2cccc(NC(=O)N3CCCC3)c2)ncc1I)c1cccs1 [BX 795]
How it was run: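 For viability, nuclei in each treated well were divided by nuclei in vehicle wells and the median across plates was taken. Lung cancer cell lines in 1536-well plates were pinned with five library-drug doses (not always all listed) spaced by √10, cultured 5 days without medium change, and imaged at 4× after Hoechst staining, with plates passing only at control CV below 25% and at least one doubling.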

BX 795 + AZD7762 = compound: O=C(NCCCNc1nc(Nc2cccc(NC(=O)N3CCCC3)c2)ncc1I)c1cccs1 [BX 795] + NC(=O)Nc1cc(-c2cccc(F)c2)sc1C(=O)N[C@H]1CCCNC1 [AZD7762] (partner 0.2 µM)
How it was run: (§1)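 Lung cancer cell lines were pin-tool dosed in 1536-well plates on the day after seeding, with either a lone drug or a fixed anchor-drug dose plus five library-drug doses (not always all listed) in √10 steps. Nuclei were counted on 4× images after 5 days. Relative viability is the ratio of treated-well to vehicle-well nuclei counts, with each value a median of duplicate plates.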

BX 795 + Trametinib = compound: O=C(NCCCNc1nc(Nc2cccc(NC(=O)N3CCCC3)c2)ncc1I)c1cccs1 [BX 795] + CC(=O)Nc1cccc(-n2c(=O)n(C3CC3)c(=O)c3c(Nc4ccc(I)cc4F)n(C)c(=O)c(C)c32)c1 [Trametinib] (partner 0.02 µM)
How it was run: as §1

BX 795 + Decitabine = compound: O=C(NCCCNc1nc(Nc2cccc(NC(=O)N3CCCC3)c2)ncc1I)c1cccs1 [BX 795] + Nc1ncn([C@H]2C[C@H](O)[C@@H](CO)O2)c(=O)n1 [Decitabine] (partner 2 µM)
How it was run: as §1

BX 795 + Tozasertib = compound: O=C(NCCCNc1nc(Nc2cccc(NC(=O)N3CCCC3)c2)ncc1I)c1cccs1 [BX 795] + Cc1cc(Nc2cc(N3CCN(C)CC3)nc(Sc3ccc(NC(=O)C4CC4)cc3)n2)n[nH]1 [Tozasertib] (partner 0.1 µM)
How it was run: as §1

BX 795 + Palbociclib = compound: O=C(NCCCNc1nc(Nc2cccc(NC(=O)N3CCCC3)c2)ncc1I)c1cccs1 [BX 795] + CC(=O)c1c(C)c2cnc(Nc3ccc(N4CCNCC4)cn3)nc2n(C2CCCC2)c1=O [Palbociclib] (partner 0.5 µM)
How it was run: as §1

BX 795 + Vorinostat = compound: O=C(NCCCNc1nc(Nc2cccc(NC(=O)N3CCCC3)c2)ncc1I)c1cccs1 [BX 795] + O=C(CCCCCCC(=O)Nc1ccccc1)NO [Vorinostat] (partner 1 µM)
How it was run: as §1

BX 795 + Pemetrexed = compound: O=C(NCCCNc1nc(Nc2cccc(NC(=O)N3CCCC3)c2)ncc1I)c1cccs1 [BX 795] + Nc1nc2[nH]cc(CCc3ccc(C(=O)N[C@@H](CCC(=O)O)C(=O)O)cc3)c2c(=O)[nH]1 [Pemetrexed] (partner 0.2 µM)
How it was run: as §1

BX 795 + Olaparib = compound: O=C(NCCCNc1nc(Nc2cccc(NC(=O)N3CCCC3)c2)ncc1I)c1cccs1 [BX 795] + O=C(c1cc(Cc2n[nH]c(=O)c3ccccc23)ccc1F)N1CCN(C(=O)C2CC2)CC1 [Olaparib] (partner 8 µM)
How it was run: as §1

BX 795 + OSI-027 = compound: O=C(NCCCNc1nc(Nc2cccc(NC(=O)N3CCCC3)c2)ncc1I)c1cccs1 [BX 795] + COc1cccc2cc(-c3nc([C@H]4CC[C@H](C(=O)O)CC4)n4ncnc(N)c34)[nH]c12 [OSI-027] (partner 0.5 µM)
How it was run: as §1

BX 795 + Crizotinib = compound: O=C(NCCCNc1nc(Nc2cccc(NC(=O)N3CCCC3)c2)ncc1I)c1cccs1 [BX 795] + C[C@@H](Oc1cc(-c2cnn(C3CCNCC3)c2)cnc1N)c1c(Cl)ccc(F)c1Cl [Crizotinib] (partner 1 µM)
How it was run: as §1

BX 795 + Bortezomib = compound: O=C(NCCCNc1nc(Nc2cccc(NC(=O)N3CCCC3)c2)ncc1I)c1cccs1 [BX 795] + CC(C)C[C@H](NC(=O)[C@H](Cc1ccccc1)NC(=O)c1cnccn1)B(O)O [Bortezomib] (partner 0.002 µM)
How it was run: as §1

BX 795 + Foretinib = compound: O=C(NCCCNc1nc(Nc2cccc(NC(=O)N3CCCC3)c2)ncc1I)c1cccs1 [BX 795] + COc1cc2c(Oc3ccc(NC(=O)C4(C(=O)Nc5ccc(F)cc5)CC4)cc3F)ccnc2cc1OCCCN1CCOCC1 [Foretinib] (partner 0.25 µM)
How it was run: as §1

BX 795 + Linsitinib = compound: O=C(NCCCNc1nc(Nc2cccc(NC(=O)N3CCCC3)c2)ncc1I)c1cccs1 [BX 795] + C[C@]1(O)C[C@@H](c2nc(-c3ccc4ccc(-c5ccccc5)nc4c3)c3c(N)nccn32)C1 [Linsitinib] (partner 1 µM)
How it was run: as §1

BX 795 + Navitoclax = compound: O=C(NCCCNc1nc(Nc2cccc(NC(=O)N3CCCC3)c2)ncc1I)c1cccs1 [BX 795] + CC1(C)CCC(c2ccc(Cl)cc2)=C(CN2CCN(c3ccc(C(=O)NS(=O)(=O)c4ccc(N[C@H](CCN5CCOCC5)CSc5ccccc5)c(S(=O)(=O)C(F)(F)F)c4)cc3)CC2)C1 [Navitoclax] (partner 0.5 µM)
How it was run: as §1

BX 795 + Alpelisib = compound: O=C(NCCCNc1nc(Nc2cccc(NC(=O)N3CCCC3)c2)ncc1I)c1cccs1 [BX 795] + Cc1nc(NC(=O)N2CCC[C@H]2C(N)=O)sc1-c1ccnc(C(C)(C)C(F)(F)F)c1 [Alpelisib] (partner 2 µM)
How it was run: as §1

BX 795 + Pictilisib = compound: O=C(NCCCNc1nc(Nc2cccc(NC(=O)N3CCCC3)c2)ncc1I)c1cccs1 [BX 795] + CS(=O)(=O)N1CCN(Cc2cc3nc(-c4cccc5[nH]ncc45)nc(N4CCOCC4)c3s2)CC1 [Pictilisib] (partner 1 µM)
How it was run: as §1

BX 795 + Lapatinib = compound: O=C(NCCCNc1nc(Nc2cccc(NC(=O)N3CCCC3)c2)ncc1I)c1cccs1 [BX 795] + CS(=O)(=O)CCNCc1ccc(-c2ccc3ncnc(Nc4ccc(OCc5cccc(F)c5)c(Cl)c4)c3c2)o1 [Lapatinib] (partner 2 µM)
How it was run: as §1

NCI-H1648
relative viability (BX 795; 0.04 µM): 0.872 | relative viability (BX 795; 0.1265 µM): 0.804 | relative viability (BX 795; 0.4 µM): 0.972 | relative viability (BX 795; 1.265 µM): 1.01 | relative viability (BX 795 + AZD7762; first compound 0.04 µM): 0.833 | relative viability (BX 795 + AZD7762; first compound 0.1265 µM): 0.756 | relative viability (BX 795 + AZD7762; first compound 0.4 µM): 0.791 | relative viability (BX 795 + AZD7762; first compound 1.265 µM): 0.911 | relative viability (BX 795 + Trametinib; first compound 0.04 µM): 0.526 | relative viability (BX 795 + Trametinib; first compound 0.1265 µM): 0.451 | relative viability (BX 795 + Trametinib; first compound 0.4 µM): 0.575 | relative viability (BX 795 + Trametinib; first compound 1.265 µM): 0.481 | relative viability (BX 795 + Decitabine; first compound 0.04 µM): 0.584 | relative viability (BX 795 + Decitabine; first compound 0.1265 µM): 0.442 | relative viability (BX 795 + Decitabine; first compound 0.4 µM): 0.523 | relative viability (BX 795 + Decitabine; first compound 1.265 µM): 0.616 | relative viability (BX 795 + Tozasertib; first compound 0.04 µM): 0.611 | relative viability (BX 795 + Tozasertib; first compound 0.1265 µM): 0.466 | relative viability (BX 795 + Tozasertib; first compound 0.4 µM): 0.638 | relative viability (BX 795 + Tozasertib; first compound 1.265 µM): 0.378 | relative viability (BX 795 + Palbociclib; first compound 0.04 µM): 0.267 | relative viability (BX 795 + Palbociclib; first compound 0.1265 µM): 0.264 | relative viability (BX 795 + Palbociclib; first compound 0.4 µM): 0.411 | relative viability (BX 795 + Palbociclib; first compound 1.265 µM): 0.299 | relative viability (BX 795 + Vorinostat; first compound 0.04 µM): 0.441 | relative viability (BX 795 + Vorinostat; first compound 0.1265 µM): 0.525 | relative viability (BX 795 + Vorinostat; first compound 0.4 µM): 0.668 | relative viability (BX 795 + Vorinostat; first compound 1.265 µM): 0.535 | relative viability (BX 795 + Pemetrexed; first compound 0.04 µM): 0.727 | relative viability (BX 795 + Pemetrexed; first compound 0.1265 µM): 0.824 | relative viability (BX 795 + Pemetrexed; first compound 0.4 µM): 0.834 | relative viability (BX 795 + Pemetrexed; first compound 1.265 µM): 1.02 | relative viability (BX 795 + Olaparib; first compound 0.04 µM): 0.869 | relative viability (BX 795 + Olaparib; first compound 0.1265 µM): 1.51 | relative viability (BX 795 + Olaparib; first compound 0.4 µM): 1.15 | relative viability (BX 795 + Olaparib; first compound 1.265 µM): 1.11 | relative viability (BX 795 + OSI-027; first compound 0.04 µM): 0.258 | relative viability (BX 795 + OSI-027; first compound 0.1265 µM): 0.214 | relative viability (BX 795 + OSI-027; first compound 0.4 µM): 0.265 | relative viability (BX 795 + OSI-027; first compound 1.265 µM): 0.247

Calu-6
relative viability (BX 795; 0.04 µM): 0.98 | relative viability (BX 795; 0.1265 µM): 1 | relative viability (BX 795; 0.4 µM): 0.716 | relative viability (BX 795; 1.265 µM): 0.665 | relative viability (BX 795 + Crizotinib; first compound 0.04 µM): 0.728 | relative viability (BX 795 + Crizotinib; first compound 0.1265 µM): 0.777 | relative viability (BX 795 + Crizotinib; first compound 0.4 µM): 0.556 | relative viability (BX 795 + Crizotinib; first compound 1.265 µM): 0.249 | relative viability (BX 795 + Bortezomib; first compound 0.04 µM): 1.04 | relative viability (BX 795 + Bortezomib; first compound 0.1265 µM): 1.02 | relative viability (BX 795 + Bortezomib; first compound 0.4 µM): 0.831 | relative viability (BX 795 + Bortezomib; first compound 1.265 µM): 0.525 | relative viability (BX 795 + Foretinib; first compound 0.04 µM): 0.91 | relative viability (BX 795 + Foretinib; first compound 0.1265 µM): 0.84 | relative viability (BX 795 + Foretinib; first compound 0.4 µM): 0.557 | relative viability (BX 795 + Foretinib; first compound 1.265 µM): 0.555 | relative viability (BX 795 + Linsitinib; first compound 0.04 µM): 0.883 | relative viability (BX 795 + Linsitinib; first compound 0.1265 µM): 1.06 | relative viability (BX 795 + Linsitinib; first compound 0.4 µM): 0.533 | relative viability (BX 795 + Linsitinib; first compound 1.265 µM): 0.726 | relative viability (BX 795 + Navitoclax; first compound 0.04 µM): 0.825 | relative viability (BX 795 + Navitoclax; first compound 0.1265 µM): 0.874 | relative viability (BX 795 + Navitoclax; first compound 0.4 µM): 0.727 | relative viability (BX 795 + Navitoclax; first compound 1.265 µM): 0.389 | relative viability (BX 795 + Alpelisib; first compound 0.04 µM): 1.1 | relative viability (BX 795 + Alpelisib; first compound 0.1265 µM): 0.919 | relative viability (BX 795 + Alpelisib; first compound 0.4 µM): 0.585 | relative viability (BX 795 + Alpelisib; first compound 1.265 µM): 0.509 | relative viability (BX 795 + Pictilisib; first compound 0.04 µM): 0.896 | relative viability (BX 795 + Pictilisib; first compound 0.1265 µM): 0.966 | relative viability (BX 795 + Pictilisib; first compound 0.4 µM): 0.518 | relative viability (BX 795 + Pictilisib; first compound 1.265 µM): 0.505 | relative viability (BX 795 + Olaparib; first compound 0.04 µM): 0.559 | relative viability (BX 795 + Olaparib; first compound 0.1265 µM): 0.591 | relative viability (BX 795 + Olaparib; first compound 0.4 µM): 0.283 | relative viability (BX 795 + Olaparib; first compound 1.265 µM): 0.336 | relative viability (BX 795 + Lapatinib; first compound 0.04 µM): 1.02 | relative viability (BX 795 + Lapatinib; first compound 0.1265 µM): 1.1 | relative viability (BX 795 + Lapatinib; first compound 0.4 µM): 0.843 | relative viability (BX 795 + Lapatinib; first compound 1.265 µM): 0.552
